From patent publication US6503881B2 (priority 1996, dated 2003)
Converted amounts (≈) assume the structure as drawn. Where two headings read alike, the source gives them in different places. Peptide text beside a SMILES is read from it.

Assays:
[1] = test system: microorganisms with acquired resistance; assay: microbe, parasite or virus in culture
[2] = test system: inherently resistant microorganisms
[3] = test system: P. aeruginosa; type: cell-based
[4] = test system: bacterial isolates; conditions: for PIC: with Gentamicin
[5] = test system: microorganisms with acquired resistance
[6] = test system: MRSA (ATCC #33591); type: in vivo, S. aureus; conditions: for Percentage of Animals Surviving, Treatment: MRSA ip infection in mice, iv in formulation D, protocol not named in table (1 mg/kg (20 min)); for survival: iv
[7] = test system: S. epidermidis (ATCC #12228); conditions: in vivo, iv
[8] = test system: MSSA (Smith, ATCC #19640); type: in vivo, S. aureus; conditions: formulation D
[9] = test system: E. coli strain ML-35; type: cell-based; conditions: for ONPG hydrolysis diminished: cells pre-incubated with vancomycin, compared to no pre-incubation
[10] = test system: bacteria
[11] = type: biochemical
[12] = S. aureus SA25 (Ciprofloxacin section)
[13] = S. aureus MRSA 13, pair Mupirocin / MBI 10CN
[14] = S. aureus MRSA 17, pair Mupirocin / MBI 10CN, first line
[15] = E. coli ATCC 25922, agarose dilution assay
[16] = E. coli NCTC 10418, agarose dilution assay
[17] = E. faecium ATCC 29212, agarose dilution assay
[18] = P. aeruginosa ATCC 27853, agarose dilution assay
[19] = P. aeruginosa NCTC 10662, agarose dilution assay
[20] = S. aureus MRSA9, agarose dilution assay
[21] = S. aureus MRSA13, agarose dilution assay
[22] = S. aureus MRSA17, agarose dilution assay
[23] = S. marcescens SM82, agarose dilution assay
[24] = S. pneumoniae 406LE8, agarose dilution assay
[25] = S. pneumoniae 60120, agarose dilution assay
[26] = S. pneumoniae ATCC 49619, agarose dilution assay
[27] = S. maltophilia SMA018, pair Amikacin / MBI 21A2

CC1(C)S[C@@H]2[C@H](NC(=O)[C@H](N)c3ccccc3)C(=O)N2[C@H]1C(=O)O [Ampicillin]
MIC ([1]; Staphylococcus haemolyticus, read-out: MIC alone, S. haemolyticus SH8459, pair Ampicillin / MBI 26): 0.5 µg/mL (≈ 1.43 µM)
MIC ([1]; Staphylococcus haemolyticus, read-out: MIC alone, S. haemolyticus SH8564, pair Ampicillin / MBI 26): 64 µg/mL (≈ 183 µM)
MIC ([1]; Staphylococcus haemolyticus, read-out: MIC alone, S. haemolyticus SH8575, pair Ampicillin / MBI 26): 0.5 µg/mL (≈ 1.43 µM)
MIC ([1]; Staphylococcus haemolyticus, read-out: MIC alone, S. haemolyticus SH8578, pair Ampicillin / MBI 26): 0.5 µg/mL (≈ 1.43 µM)

CO/N=C(\C(=O)N[C@@H]1C(=O)N2C(C(=O)O)=C(CSc3nc(=O)c(=O)[nH]n3C)CS[C@H]12)c1csc(N)n1 [Ceftriaxone]
MIC in combination ([2]; S. maltophilia SMA021, pair Ceftriaxone / MBI 11B7CN): 1 µg/mL
MIC in combination ([2]; S. maltophilia SMA021, pair Ceftriaxone / MBI 26): 1 µg/mL
MIC in combination ([2]; S. maltophilia SMA023, pair Ceftriaxone / MBI 11B7CN): 8 µg/mL
MIC in combination ([3]; P. aeruginosa PA008, pair Ceftriaxone / MBI 26): 8 µg/mL
MIC in combination ([3]; P. aeruginosa PA039, pair Ceftriaxone / MBI 11J02CN): 1 µg/mL

CC[C@H](C)[C@H](NC(=O)[C@H](C)NC(=O)[C@@H]1CCCN1C(=O)CNC(=O)[C@H](C)NC(=O)[C@@H](NC(=O)[C@H](CCCCN)NC(=O)[C@H](CC(C)C)NC(=O)CNC(=O)[C@H](CO)NC(=O)[C@H](CC(C)C)NC(=O)[C@@H](NC(=O)[C@H](CCCNC(=N)N)NC(=O)[C@H](CCCNC(=N)N)NC(=O)[C@H](Cc1c[nH]c2ccccc12)NC(=O)[C@H](Cc1c[nH]c2ccccc12)NC(=O)[C@H](CCCCN)NC(=O)[C@@H](N)CCCCN)C(C)C)[C@@H](C)O)C(=O)N[C@@H](CCC(N)=O)C(=O)N[C@@H](CO)C(=O)N[C@H](C(=O)N[C@@H](CC(C)C)C(=O)N[C@@H](CC(N)=O)C(=O)N[C@@H](CCCCN)C(=O)O)C(C)C [MBI 21A1, KKWWRRVLSGLKTAGPAIQSVLNK] (H-KKWWRRVLSGLKTAGPAIQSVLNK-OH; N-terminus and C-terminus assumed)
Peptide MI Alone [4, 12]: 32 µg/mL
MIC in combination ([2]; S. aureus SA014 MRSA, pair Tobramycin / MBI 21A1): 16 µg/mL

COc1cccc(OC)c1C(=O)N[C@@H]1C(=O)N2[C@@H]1SC(C)(C)[C@@H]2C(=O)O [Methicillin]
MIC comb. ([5]; S. aureus SA7796, pair Methicillin / MBI 31): 2 µg/mL (≈ 5.26 µM)
MIC comb. ([5]; S. aureus SA7797, pair Methicillin / MBI 31): 2 µg/mL (≈ 5.26 µM)
MIC comb. ([5]; S. aureus SA7818, pair Methicillin / MBI 26): 4 µg/mL (≈ 10.5 µM)
MIC comb. ([5]; S. aureus SA7823, pair Methicillin / MBI 31): 2 µg/mL (≈ 5.26 µM)
MIC comb. ([5]; S. aureus SA7834, pair Methicillin / MBI 26): 8 µg/mL (≈ 21 µM)
MIC comb. ([5]; S. aureus SA7834, pair Methicillin / MBI 31): 1 µg/mL (≈ 2.63 µM)
MIC comb. ([5]; S. aureus SA7835, pair Methicillin / MBI 26): 4 µg/mL (≈ 10.5 µM)
MIC comb. ([5]; S. aureus SA7835, pair Methicillin / MBI 31): 2 µg/mL (≈ 5.26 µM)
MIC ([1]; Staphylococcus aureus, read-out: MIC alone, S. aureus SA7796, pair Methicillin / MBI 31): 16 µg/mL (≈ 42.1 µM)
MIC ([1]; Staphylococcus aureus, read-out: MIC alone, S. aureus SA7797, pair Methicillin / MBI 31): 16 µg/mL (≈ 42.1 µM)
MIC ([1]; Staphylococcus aureus, read-out: MIC alone, S. aureus SA7818, pair Methicillin / MBI 26): 16 µg/mL (≈ 42.1 µM)
MIC ([1]; Staphylococcus aureus, read-out: MIC alone, S. aureus SA7823, pair Methicillin / MBI 31): 16 µg/mL (≈ 42.1 µM)
MIC ([1]; Staphylococcus aureus, read-out: MIC alone, S. aureus SA7834, pair Methicillin / MBI 26): 32 µg/mL (≈ 84.1 µM)
MIC ([1]; Staphylococcus aureus, read-out: MIC alone, S. aureus SA7834, pair Methicillin / MBI 31): 64 µg/mL (≈ 168 µM)
MIC ([1]; Staphylococcus aureus, read-out: MIC alone, S. aureus SA7835, pair Methicillin / MBI 26): 32 µg/mL (≈ 84.1 µM)
MIC ([1]; Staphylococcus aureus, read-out: MIC alone, S. aureus SA7835, pair Methicillin / MBI 31): 64 µg/mL (≈ 168 µM)

C/C(=C\C(=O)OCCCCCCCCC(=O)O)C[C@@H]1OC[C@H](C[C@@H]2O[C@H]2[C@@H](C)[C@H](C)O)[C@@H](O)[C@H]1O [Mupirocin]
MIC comb. [5, 13]: 3 µg/mL (≈ 5.99 µM)
MIC comb. [5, 14]: 1 µg/mL (≈ 2 µM)
MIC comb. ([5]; S. aureus MRSA 17, pair Mupirocin / MBI 11G13CN): 1 µg/mL (≈ 2 µM)
MIC in combination ([2]; E. coli SBECO1, pair Mupirocin / MBI 28): 0.1 µg/mL
MIC in combination ([3]; P. aeruginosa PA2, pair Mupirocin / MBI 27): 0.1 µg/mL
MIC in combination ([3]; P. aeruginosa PA2, pair Mupirocin / MBI 29A3): 0.1 µg/mL
MIC in combination ([3]; P. aeruginosa PA3, pair Mupirocin / MBI 29A3): 0.1 µg/mL
MIC in combination ([3]; P. aeruginosa PA4, pair Mupirocin / MBI 27): 0.3 µg/mL
MIC in combination ([3]; P. aeruginosa PA4, pair Mupirocin / MBI 29A3): 0.1 µg/mL
MIC in combination ([3]; P. aeruginosa SBPA2, pair Mupirocin / MBI 29A3): 0.1 µg/mL

NC[C@H]1O[C@H](O[C@H]2[C@H](O)[C@@H](O[C@H]3O[C@H](CO)[C@@H](O)[C@H](N)[C@H]3O)[C@H](N)C[C@@H]2N)[C@H](N)C[C@@H]1O [Tobramycin]
MIC comb. ([5]; S. maltophilia 037, pair Tobramycin / MBI 29): 4 µg/mL (≈ 8.56 µM)
MIC ([1]; Stenotrophomonas maltophilia, read-out: MIC alone, S. maltophilia 041, pair Tobramycin / MBI 29): 16 µg/mL (≈ 34.2 µM)

I L K K W P W W P W R R K [MBI 11CN]
Percentage of Animals Surviving, Treatment ([6]; 6 hours post-infection): 70%
Percentage of Animals Surviving, Treatment ([6]; 10 hours post-infection): 30%
survival ([6]; 1 mg/kg (20 min) protocol, injections 5 minutes apart): delayed the death of the mice to a significant extent
survival ([6]; 5 mg/kg and 1 mg/kg (2 hr) protocols, injections 1 hour apart): no improvement in survivability over the negative control
survival of mice [7]: prolongs the survival of the mice
survival (mice rescued) ([8]; ip 35.7 mg/kg, 60 minutes post-infection, 8 days): 100%
activity at lower dose levels ([8]; ip below 35.7 mg/kg): little or no activity
FIC ([5]; peptide + Tobramycin, S. maltophilia SMA030): 9.27
ONPG hydrolysis diminished [9]: approximately 50%
MIC [10, 15]: 16 µg/mL
MIC [10, 16]: 4 µg/mL
MIC [10, 17]: 8 µg/mL
MIC [10, 18]: >128 µg/mL
MIC [10, 19]: >128 µg/mL
MIC [10, 20]: 2 µg/mL
MIC [10, 21]: 16 µg/mL
MIC [10, 22]: 4 µg/mL
MIC [10, 23]: >128 µg/mL
MIC [10, 24]: >128 µg/mL
MIC [10, 25]: >128 µg/mL
MIC [10, 26]: 64 µg/mL
membrane permeabilizing activity (ANTS/DPX dye release) [11]: virtually abolishes membrane permeabilizing activity

I L P W K W P W W P W R R [MBI 10CN]
Peptide MIC [5, 13]: 4 µg/mL
Peptide MIC [5, 14]: 1 µg/mL
Peptide MIC ([5]; S. aureus MRSA 17, pair Mupirocin / MBI 10CN, second line): 2 µg/mL
ONPG hydrolysis diminished [9]: approximately 50%
MIC ([10]; A. calcoaceticus AC001): 64 µg/mL
MIC ([10]; E. cloacae ECL007): >128 µg/mL
MIC [10, 15]: 16 µg/mL
MIC ([10]; E. coli ECO001): 32 µg/mL
MIC [10, 16]: 8 µg/mL
MIC ([10]; E. coli SBECO2): 16 µg/mL
MIC ([10]; E. faecalis EFS004): 8 µg/mL
MIC [10, 17]: 4 µg/mL
MIC ([10]; E. faecium EFM003): 2 µg/mL
MIC ([10]; K. pneumoniae KP002): 64 µg/mL
MIC [10, 18]: >128 µg/mL
MIC [10, 19]: >128 µg/mL
MIC ([10]; P. aeruginosa PA002): >128 µg/mL
MIC [10, 20]: 1 µg/mL
MIC [10, 21]: 4 µg/mL
MIC [10, 22]: 2 µg/mL
MIC ([10]; S. aureus SA003): 2 µg/mL
MIC ([10]; S. epidermidis SE010): 4 µg/mL
MIC ([10]; S. maltophilia SMA002): 64 µg/mL
MIC [10, 23]: >128 µg/mL
MIC ([10]; S. marcescens SMS004): >128 µg/mL
MIC [10, 24]: >128 µg/mL
MIC [10, 25]: 64 µg/mL
MIC [10, 26]: 32 µg/mL

I L R W P W W P W R R K [MBI 11B7CN]
FIC ([4]; Piperacillin + peptide, S. aureus 19 MRSA): 0.50
Peptide MIC + Piperacillin ([4]; S. aureus 19 MRSA): 1 µg/mL
Peptide MIC Alone ([4]; S. aureus 19 MRSA): 4 µg/mL
Piperacillin MIC + Peptide ([4]; S. aureus 19 MRSA): 32 µg/mL
membrane permeabilizing activity ([9]; peptide pre-incubated with 150 mM NaCl or 5 mM Mg2+): significant inhibition
FIC ([3]; P. aeruginosa PA008, pair Ceftriaxone / MBI 11B7CN): 9.50

KKWWRRALQGLKTAGPAIQSVLNK [MBI 21A2]
acquired resistance of S. aureus to piperacillin and ciprofloxacin ([5]; antibiotic agents combined with the peptide): overcome
MIC Alone [2, 27]: 16 µg/mL
MIC in combination [2, 27]: 8 µg/mL

KWKSFIKKLTSAAKKVLTTGLPALIS [MBI 29A3]
Peptide MI Alone ([4]; S. aureus SA10 (Ciprofloxacin section)): 2 µg/mL
Peptide MI Alone [4, 12]: 1 µg/mL
PIC ([4]; S. maltophilia SMA019): 0.31
PIC ([4]; S. maltophilia SMA021): 0.31
Peptide MIC Alone ([5]; EFS014): 1 µg/mL
Peptide MIC Alone ([5]; SA25): 1 µg/mL
MIC in combination ([2]; S. maltophilia SMA063, pair Amikacin / MBI 29A3): 4 µg/mL
MIC Alone ([2]; SMA036): 64 µg/mL
MIC Alone ([2]; SMA063): 8 µg/mL
